These results are taken from patent US5602101A, “Antithrombotic agents” (priority 1994, dated 1997).

The test system of data set [1] is Human Plasma. The experiment in a line: Anticoagulation in human plasma, thrombin time (TT). Type of data set: biochemical. Conditions: concentration required to double the thrombin time. In a few lines:
(§1)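 Compounds were added to human plasma over a range of concentrations. PT used Thromboplastin-C reagent with saline; APTT used a 120-second Actin preincubation followed by 0.02M CaCl2, and TT used bovine thrombin. Clotting times were read on a CoAScreener, and the concentration doubling clotting time was estimated by linear extrapolation.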

Data set [2] has as its target T1, tissue plasminogen activator (t-PA) (Homo sapiens, UniProt P00750).
T1 construct: purchased American Diagnostics, Greenwich, Conn
Briefly: Serine protease inhibition, t-PA (chromogenic substrate), Kass. It is filed as biochemical. Conditions: substrate H-D-Ile-Pro-Arg-p-nitroanilide. A digest of the protocol: (§2)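 Enzyme mixed with test compound in 0.03M Tris, 0.15M NaCl, pH 7.4, then p-nitroanilide substrate added (Bz-Ile-Glu-Gly-Arg-pNA for factor Xa; Bz-Phe-Val-Arg-pNA for trypsin; H-D-Ile-Pro-Arg-pNA for t-PA; H-D-Val-Leu-Lys-pNA for plasmin); hydrolysis followed at 405 nm. Free enzyme from standard curves gave bound enzyme and free inhibitor; Kass (L/mol) averaged over several compound concentrations.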

A further data set deals with T2, Human plasmin (Homo sapiens, UniProt P00747).
T2 construct: Human plasmin is purchased from Boehringer Mannheim, Indianapolis, Ind; purchased Boehringer Mannheim, Indianapolis, Ind
T2 sequence (P00747 581-810 limits assumed): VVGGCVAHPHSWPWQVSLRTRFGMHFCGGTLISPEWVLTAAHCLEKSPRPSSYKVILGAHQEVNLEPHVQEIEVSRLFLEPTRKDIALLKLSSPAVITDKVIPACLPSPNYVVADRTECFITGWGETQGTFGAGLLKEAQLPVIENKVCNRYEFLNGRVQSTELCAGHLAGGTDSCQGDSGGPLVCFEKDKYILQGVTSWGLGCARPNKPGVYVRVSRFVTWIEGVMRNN
T2 sequence (P00747 97-580 partner limits assumed): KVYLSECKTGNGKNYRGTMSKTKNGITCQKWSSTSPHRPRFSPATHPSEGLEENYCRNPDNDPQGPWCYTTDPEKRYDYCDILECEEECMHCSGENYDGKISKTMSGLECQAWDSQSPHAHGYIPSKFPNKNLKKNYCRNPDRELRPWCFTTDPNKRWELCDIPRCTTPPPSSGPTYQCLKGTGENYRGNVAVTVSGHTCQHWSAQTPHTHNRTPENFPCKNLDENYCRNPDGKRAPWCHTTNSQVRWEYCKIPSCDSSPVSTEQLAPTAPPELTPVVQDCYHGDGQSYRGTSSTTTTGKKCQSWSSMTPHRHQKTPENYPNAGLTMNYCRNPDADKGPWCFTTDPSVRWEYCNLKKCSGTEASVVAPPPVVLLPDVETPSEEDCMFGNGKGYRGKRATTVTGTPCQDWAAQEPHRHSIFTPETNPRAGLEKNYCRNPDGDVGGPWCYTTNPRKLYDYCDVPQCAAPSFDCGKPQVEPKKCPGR
Briefly: Serine protease inhibition, plasmin (chromogenic substrate), Kass. Type of data set: biochemical. Conditions: substrate H-D-Val-Leu-Lys-p-nitroanilide. A digest of the protocol:
as §2

In a further data set the target is T3, factor Xa (Homo sapiens, UniProt P00742).
T3 construct: Human factors X, Xa, IXa, XIa, and xIIa are purchased from Enzyme Research Laboratories; purchased Enzyme Research Laboratories, South Bend, Ind
T3 sequence (P00742 235-488 limits assumed): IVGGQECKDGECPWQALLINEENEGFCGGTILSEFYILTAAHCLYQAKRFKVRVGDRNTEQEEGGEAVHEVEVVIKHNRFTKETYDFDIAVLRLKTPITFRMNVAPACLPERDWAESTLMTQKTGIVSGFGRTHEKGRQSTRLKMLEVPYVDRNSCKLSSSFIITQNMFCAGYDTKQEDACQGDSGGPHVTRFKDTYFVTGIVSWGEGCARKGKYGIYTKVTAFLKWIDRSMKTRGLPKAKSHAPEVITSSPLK
T3 sequence (P00742 41-179 partner limits assumed): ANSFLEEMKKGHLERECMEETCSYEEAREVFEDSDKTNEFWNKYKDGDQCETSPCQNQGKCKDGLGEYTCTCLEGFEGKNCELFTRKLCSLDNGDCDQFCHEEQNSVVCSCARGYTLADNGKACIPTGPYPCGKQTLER
The experiment in a line: Serine protease inhibition, factor Xa (chromogenic substrate), Kass. It is filed as biochemical. Conditions: substrate N-Benzoyl-Ile-Glu-Gly-Arg-p-nitroanilide. In a few lines:
as §2

The conditions of data set [3]: rat, in vivo.
Procedure: Male Sprague Dawley rats (350-425 gm, Harlan Sprague Dawley Inc., Indianapolis, Ind.) are anesthetized with xylazine (20 mg/kg, s.c.) and ketamine (120 mg/kg, s.c.) and maintained on a heated water blanket (37° C.). The jugular vein(s) is cannulated to allow for infusions.
Plasma thrombin time (TT) and activated partial thromboplastin time (APTT) are measured with a fibrometer. Blood is sampled from a jugular catheter and collected in syringe containing sodium citrate (3.8%, 1 part to 9 parts blood). To measure TT, rat plasma (0.1 ml) is mixed with saline (0.1 ml) and bovine thrombin (0.1 ml, 30 U/ml in TRIS buffer; Parke Davis) at 37° C. For APTT, plasma (0.1 ml) and APTT solution (0.1 ml, Organon Teknika are incubated for 5 minutes (37° C.) and CaCl2 (0.01 ml, 0,025M) is added to start coagulation. Assays are done in duplicate and averaged.
The time course of the effect of the thrombin inhibitor upon TT is determined after i.v bolus administration to anesthetized rats and after oral treatment of fasted conscious rats. Due to limitations of blood volume and the number of points required to determine the time course from time of treatment to the time when the response returns to pretreatment values, two populations of rats are used. Each sample population represents alternating sequential time points. The average TT over the time course is used to calculate area under the curve (AUC). The index of bioavailability is calculated by the formula shown below and is expressed as percent relative activity.
The area under the curve (AUC) of the plasma TT time course is determined and adjusted for the dose. This index of bioavailability is termed "% Relative Activity" and is calculated as [formula]
Compound solutions are prepared fresh daily in normal saline and are injected as a bolus or are infused starting 15 min before and continuing throughout the experimental perturbation which is 15 minutes in the arteriovenous shunt model and 60 minutes in the FeCl3 model of arterial injury and in the spontaneous thrombolysis model. Bolus injection volume is 1 ml/kg for i.v., and 5 ml/kg for p.o. and infusion volume is 3 ml/hr.
Another data set has as its target T4, human thrombin (Homo sapiens, UniProt P00734).
T4 construct: purified human thrombin Enzyme Research Laboratories, South Bend, Ind; purchased Enzyme Research Laboratories, South Bend, Ind
The experiment in a line: Inhibition of amidase activity of thrombin (chromogenic substrate), Kass. Type of data set: biochemical. Conditions: substrate N-benzoyl-Phe-Val-Arg-p-nitroanilide, pH 7.4. A digest of the protocol: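 Human thrombin (8 NIH units/ml solution) with compound in 0.03M Tris, 0.15M NaCl, pH 7.4; chromogenic substrate hydrolysis followed at 405 nm. Free thrombin from standard curves gives bound enzyme and free inhibitor; Kass, an association equilibrium constant in L/mol, averaged over a compound concentration range.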

Data set [4] concerns Human Plasma. Briefly: Anticoagulation in human plasma, activated partial thromboplastin time (APTT). It is filed as biochemical. Conditions: concentration required to double the APTT. A digest of the protocol:
as §1

In data set [5] the test system is Human Plasma. Briefly: Anticoagulation in human plasma, prothrombin time (PT). Type of data set: biochemical. Conditions: concentration required to double the PT. In a few lines:
as §1

In the next data set the target is T5, Bovine trypsin (Bos taurus, UniProt P00760).
T5 construct: Bovine trypsin is purchased from Worthington Biochemicals, Freehold, N.J; purchased Worthington Biochemicals, Freehold, N.J
T5 sequence (P00760 24-246): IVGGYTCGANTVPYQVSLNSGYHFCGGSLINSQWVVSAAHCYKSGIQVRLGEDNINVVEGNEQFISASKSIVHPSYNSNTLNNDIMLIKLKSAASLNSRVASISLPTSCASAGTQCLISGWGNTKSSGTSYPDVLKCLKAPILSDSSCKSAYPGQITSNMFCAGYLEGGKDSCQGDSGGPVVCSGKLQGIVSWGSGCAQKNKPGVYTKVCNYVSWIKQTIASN
The experiment in a line: Serine protease inhibition, trypsin (chromogenic substrate), Kass. It is filed as biochemical. The following applies: substrate N-Benzoyl-Phe-Val-Arg-p-nitroanilide. In a few lines:
as §2

Non-standard residues stand in square brackets, D forms with d. Residues, ends and D or L forms follow the SMILES beside them. dNMeCha = CN[C@H](CC1CCCCC1)C(=O)O

T1 sequence (P00750 36-562): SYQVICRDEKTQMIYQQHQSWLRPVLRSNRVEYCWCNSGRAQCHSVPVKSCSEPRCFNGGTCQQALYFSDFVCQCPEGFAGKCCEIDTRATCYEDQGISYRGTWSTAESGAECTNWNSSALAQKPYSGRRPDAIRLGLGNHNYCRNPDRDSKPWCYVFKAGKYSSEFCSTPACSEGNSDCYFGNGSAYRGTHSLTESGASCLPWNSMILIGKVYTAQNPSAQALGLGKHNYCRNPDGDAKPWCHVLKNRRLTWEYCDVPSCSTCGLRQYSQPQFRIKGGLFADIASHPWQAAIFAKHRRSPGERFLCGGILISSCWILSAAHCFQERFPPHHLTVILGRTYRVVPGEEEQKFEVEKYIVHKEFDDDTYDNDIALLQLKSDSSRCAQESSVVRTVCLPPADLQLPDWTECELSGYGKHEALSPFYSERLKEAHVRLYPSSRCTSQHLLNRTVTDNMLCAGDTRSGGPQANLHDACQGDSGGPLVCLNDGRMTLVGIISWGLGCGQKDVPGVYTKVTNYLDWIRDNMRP

On to `CN[C@H](CC1CCCCC1)C(=O)N1CCC[C@H]1C(=O)N[C@H](C=O)CCCNC(=N)N.Cl` [Example 31, Me-D-Cha-Pro-Arg-H.HCl] (H-[dNMeCha]-Pro-Arg-aldehyde), for which, in the data set on Human Plasma [1], the “2 × Clotting time, TT” value came out at 18 ng/mL. In addition, in data set [2], the “Enzyme Kass, t-Pa” value was determined as 0.037 L/mol × 10^6. Also, the “Enzyme Kass, Plasmin” value on Human plasmin was determined as 7.7 L/mol × 10^6. The “Enzyme Kass, Xa” value on factor Xa came to 5.6 L/mol × 10^6. For the same compound, in data set [3], the “Index of Bioavailability, % Relative Activity” value was 13%. Besides, the “Enzyme Kass, Human Thrombin” value on human thrombin was determined as 590 L/mol × 10^6. The “2 × Clotting time, APTT” value in the data set with Human Plasma [4] came out at 420 ng/mL. For the same compound, the “2 × Clotting time, PT” value with Human Plasma [5] came out at 720 ng/mL. The “Enzyme Kass, Trypsin” value at Bovine trypsin came out at 160 L/mol × 10^6.
